# Source: patent US8957106B2, “Iminosugar treatment of tumors” (The Chancellor, Masters and Scholars of the University of …, priority 2007, dated 2015)
# pIC50: −log10 of the molar value.
# What was measured:
# [1] = tested on: SKMel28 melanoma cells; test: MTS cell viability assay, SKMel28; format: cell-based; details: Homo sapiens, SK-MEL-28, SKMel28, 24 h, read-out: IC50 (concentration reducing number of viable cells by 50%)
# Method: (§1) Cells were cultured at indicated densities for 24 h, medium was removed and the incubation was continued in a fresh culture medium containing various GC2 or DTIC concentrations. In control experiments, cells were grown in a culture medium containing GC2 buffer.
# (§2) The standard […] (MTS)-3-(4,5-dimethylthiazol-2-yl)-5-(3-carboxymethoxyphenyl)-2-(4-sulphophenyl)-2H-tetrazolium inner salt solution assay was performed in order to examine the cytotoxic/cytostatic effect of GC2 on melanoma cells. Briefly, 7.5×10^3 cells were seeded in 96-well microtiter plates (Nunc). After an overnight incubation, serial dilutions of GC2 or DTIC were added in triplicate to a final volume of 100 μl. The blank was represented by a culture medium without cells containing the highest GC2 or DTIC concentration. After 24 h of incubation 20 μl MTS was added to each well and all samples were incubated for 3 h at 37° C. An absorbance of each well was read at 450 nm in a microplate reader. A percentage of cell viability was calculated considering that 100% cell viability was represented by an absorbance of untreated samples […]. Alternatively, the number of viable cells was determined by Trypan blue exclusion test. Melanoma cells treated with GC2 were trypsinized and cells negative for blue staining (viable cells) were counted using a hemocytometer. […]
# [2] = tested on: B16F10 melanoma cells; test: MTS cell viability assay, B16F10; format: cell-based, murine; details: Mus musculus, B16-F10, B16F10, 24 h, read-out: IC50 (concentration reducing number of viable cells by 50%)
# Method: as §1, §2
# [3] = tested on: MelJuSo cells; test: Cell cycle distribution analysis (PI, flow cytometry), MelJuSo; format: cell-based, human; details: 6 μM, 24 h
# Method: (§3) Cell cycle analysis in melanoma cells treated with GC2 was performed by determining DNA content using propidium iodide (PI) staining. PI intercalates into the major groove of double stranded DNA and produces a highly fluorescent adduct that can be excited at 488 nm and with a broad emission centered at 600 nm, see e.g. Krishan A. J. Cell. Biol. 66, 188, 1975. Melanoma cells (20×10^4) were cultured in 25 cm^2 tissue culture flasks for 24 h, followed by a further incubation for indicated time periods with 6 μM GC2. After treatment, adherent cells were trypsinized and a number of viable cells was determined by trypan blue exclusion. […] cells were re-suspended in 200 μl FACS buffer (2% FCS in PBS) and fixed with 600 μl absolute methanol, dropwise added under gentle vortexing, for at least 2 h at −20° C. Fixed cells were washed with FACS buffer, centrifuged for 5 min at 1500 rpm, at 4° C., and incubated for 30 min, in the dark, at room temperature (RT) with 200 μl PI staining solution in 3.8 mM sodium citrate (10 μl RNaze 10 μg/ml previously boiled for 5 min and 1 μl PI 10 mg/ml). The staining solution was removed by centrifugation and the cell pellet was re-suspended in 200 μl FACS buffer. Samples were analyzed for DNA content using a FACScan™ using CellQuest™ software (Becton Dickinson, San Jose, Calif.). […]
# [4] = tested on: B16F10 cells; test: Cell cycle distribution analysis (PI, flow cytometry), B16F10; format: cell-based, murine; details: B16F10, 6 μM, 24 h
# Method: as §3
# [5] = Solubility in solvent mixture; format: physicochemical; details: solvent mixture (GC2 buffer)
# [6] = tested on: actin network in SKMel28 and MelJuSo cells; test: Actin staining with Alexa Fluor 594 phalloidin, fluorescence microscopy; format: cell-based; details: 6 μM, 3 h
# Method: Tumor cells were cultured 24 h on cover glasses, treated with GC2, and processed as described in Negroiu, G., et al. J. Biol. Chem. 278, 27035-27042, 2003. The acidic vesicular compartments were detected following incubation of live cells GC2 treated with Lysotracker® Red (0.125 μl/ml culture medium) for 30 min at 37° C. Fixed cells were incubated with the following primary antibodies: mouse anti-EEA1 (1:100), human-CD107A (anti-Lamp1) (1:50), a mouse anti-α tubulin (1:200) followed by an appropriate Alexa Fluor® 488 conjugated secondary antibodies (1:400) or with Alexa Fluor® 594 phalloidin. Finally, nuclei of fixed cells were stained with 5 mM Hoechst dye 33342. Cells were washed three times with PBS and mounted in Vectashield® mounting medium.
# Whether tumor cell compartments and cytoskeletal elements are altered by GC2 treatment was analysed utilizing molecular markers for two main cell compartments: 1) EEA1 for early endosomes, which are accessed first by all endocytosed molecules and 2) Lamp-1 for lysosomes, the major degradative compartment. Actin filaments were labeled with Alexa Fluor® 594 phalloidin and microtubules with an anti-α-tubulin antibody; all samples were analyzed by fluorescence microscopy. […] Following GC2 treatment both endocytic markers were redistributed in large substructures detected also by phase contrast microscopy. […]
compound,measurement,setting,value
"CC(=O)O.CCCCCCCCCN1[C@@H](CO)[C@@H](O)[C@H](O)[C@@H]1CCCCCCCC [GC2, (2S,3R,4R,5S)-3,4-dihydroxy-N-nonyl-5-octyl-2 hydroxymethylpyrrolidinium acetate]",pIC50,[1],5.10 to 5.15
same,pIC50,[2],5.10 to 5.15
same,number of cells in G2 phase,[3]; untreated 17.7%,8.48%
same,proportion of surviving cells in G0/G1 phase,[3]; untreated 51.20%,60.00%
same,number of cells in G2 phase,[4]; untreated 21.68%,16.96%
same,proportion of surviving cells in G0/G1 phase,[4]; untreated 45.42,53.74%
same,solubility,[5],good solubility
same,pattern of the fluorescent actin marker,[6],disrupted
